Experimental findings from the NIST ThermoML archive (doi:10.1016/j.jct.2012.12.003) are described below.

Structures are written as SMILES. ± gives the expanded uncertainty stated by the source.

The conditions of the data set: 101.3 kPa, Liquid, Vibrating tube method.

For orientation: mass density means mass per unit of volume.

Consider `CCCO` [propan-1-ol], for which the mass density reads like this: (293.15 K) 803.527 ± 0.14 kg/m3; (298.15 K) 799.528 ± 0.14 kg/m3; (303.15 K) 795.493 ± 0.14 kg/m3; (308.15 K) 791.426 ± 0.14 kg/m3; (313.15 K) 787.32 ± 0.15 kg/m3; (318.15 K) 783.164 ± 0.15 kg/m3.
In the case of `CCCCCCO` [hexan-1-ol], the mass density by setting is: (293.15 K) 818.749 ± 0.24 kg/m3; (298.15 K) 815.188 ± 0.24 kg/m3; (303.15 K) 811.6 ± 0.24 kg/m3; (308.15 K) 807.984 ± 0.24 kg/m3; (313.15 K) 804.339 ± 0.24 kg/m3; (318.15 K) 800.657 ± 0.24 kg/m3.
For `CCCCCCCCO` [octan-1-ol], the mass density by setting is: (293.15 K) 825.093 ± 0.24 kg/m3; (298.15 K) 821.647 ± 0.24 kg/m3; (303.15 K) 818.177 ± 0.24 kg/m3; (308.15 K) 814.686 ± 0.24 kg/m3; (313.15 K) 811.171 ± 0.24 kg/m3; (318.15 K) 807.629 ± 0.24 kg/m3.
As to `CO` [methanol], the mass density is, setting by setting: (293.15 K) 791.494 ± 0.17 kg/m3; (298.15 K) 786.794 ± 0.17 kg/m3; (303.15 K) 782.071 ± 0.17 kg/m3; (308.15 K) 777.326 ± 0.17 kg/m3; (313.15 K) 772.55 ± 0.17 kg/m3; (318.15 K) 767.744 ± 0.17 kg/m3.
